This note sets out measurements from patent US20180344680A1, “COMPOSITIONS AND METHODS FOR TREATMENT, AMELIORATION, AND PREVENTION OF DIABETES-RELATED SKIN ULCERS” (THE ARIZONA BOARD OF REGENTS ON BEHALF OF THE UNIVERSITY OF …, priority 2015, published 2018).

Holding throughout (assay type): in vivo, mouse
One assay relates to wound skin tissues. The assay is described as follows: Apoptosis by TUNEL in wound skin tissues of STZ mice. From the text: Diabetes mouse model and treatments. Nrf2^+/+ and Nrf2^-/- C57BL/6 mice were described previously (see, e.g., Jiang T, et al., Diabetes 59:850-860, 2010) and were housed and handled in accordance with the University of Arizona Institutional Animal Care policies. The STZ-induced diabetic model was previously described (see, e.g., Zheng H, et al., Diabetes 60:3055-3066, 2011) and only 8 week old male mice were included in this study. Briefly, three weeks after STZ injections, fasting glucose levels (FGL, 4 h fast) were measured using the AlphaTRAK system (Abbott Laboratory, North Chicago, Ill.) and mice with a FGL higher than or equal to 250 mg/dL were considered diabetic and included in the study (see, e.g., FIG. 2A and FIG. 3A for a detailed timeline). […] Gross wound closure was quantified by ImageJ software, and wound healing was expressed as the percentage of the original wound area that had healed. […] ROS were measured in HaCaT cells using DCF. […] Then, 48 h later, the cells were switched into fresh medium containing 10 μg/mL DCF, incubated 30 min, and fluorescence intensity was measured by flow cytometry. […] For this, 8000 HaCaT cells/well were seeded in LG or HG media, with or without an NRF2 activator, and cell growth was monitored for 72 h. […]

The nature of assay [1]: Body weight and blood glucose in STZ-induced diabetic mice. The following applies: diabetic Nrf2+/+ mice; 12.5 mg/kg SF or 50 mg/kg CA intraperitoneally every other day; vs untreated STZ.
Description: Diabetes mouse model and treatments. […] Briefly, three weeks after STZ injections, fasting glucose levels (FGL, 4 h fast) were measured using the AlphaTRAK system (Abbott Laboratory, North Chicago, Ill.) and mice with a FGL higher than or equal to 250 mg/dL were considered diabetic and included in the study (see, e.g., FIG. 2A and FIG. 3A for a detailed timeline). The mice (n=5-8) were then allocated randomly to each of the indicated treatment groups and received corn oil (control), 12.5 mg/kg SF or 50 mg/kg CA intraperitoneally every two days until skin tissues were harvested.
After induction of diabetes using STZ, diabetic Nrf2^+/+ mice were intraperitoneally injected with corn oil (vehicle control), 12.5 mg/kg SF, or 50 mg/kg CA every other day for 1 week, then the wound surgery was performed and the treatment continued for 2 more weeks (FIG. 3A).
The test system of a further assay is TGF-β1. Briefly: TGF-β1 expression in wound skin tissues of STZ mice (immunoblot, IHC). The following applies: immunoblot and IHC, day 14. From the text: (§1) Diabetes mouse model and treatments. Nrf2^+/+ and Nrf2^-/- C57BL/6 mice were described previously (see, e.g., Jiang T, et al., Diabetes 59:850-860, 2010) and were housed and handled in accordance with the University of Arizona Institutional Animal Care policies. The STZ-induced diabetic model was previously described (see, e.g., Zheng H, et al., Diabetes 60:3055-3066, 2011) and only 8 week old male mice were included in this study. Briefly, three weeks after STZ injections, fasting glucose levels (FGL, 4 h fast) were measured using the AlphaTRAK system (Abbott Laboratory, North Chicago, Ill.) and mice with a FGL higher than or equal to 250 mg/dL were considered diabetic and included in the study (see, e.g., FIG. 2A and FIG. 3A for a detailed timeline). […] Gross wound closure was quantified by ImageJ software, and wound healing was expressed as the percentage of the original wound area that had healed. […] Morphology was assessed by hematoxylin and eosin (H&E) staining (Vector laboratory, Burlingame, Calif.). […] Protein concentration was measured using Quant-iT Protein Assay (Invitrogen) and 150 μg of protein were resolved by SDS-PAGE and immunoblotting analyses with the indicated antibodies.
(In general: Immunoblotting shows a protein as a band on a membrane.)

A further assay deals with MMP9. The assay is described as follows: MMP9 expression in wound skin tissues of STZ mice (immunoblot, IHC). The following applies: immunoblot and IHC, day 14.
Description: as §1

In the case of `O=CC=Cc1ccccc1` [CA, Cinnamaldehyde], in the assay on wound skin tissues, the “apoptosis (TUNEL)” value is “reduced apoptosis to a lesser extent than in Con”. In addition, in assay [1], the blood glucose levels entry is recorded as “failed to decrease blood glucose levels” and the body weight result was “reversed the body weight loss during the initial phase of diabetes”. Further, the TGF-β1 expression entry with TGF-β1 was “restored to levels comparable to that of Con mice”. The MMP9 protein expression result in the assay with MMP9 was “restored the protein expression of MMP9 to levels comparable to the Con mice”.
The like results for `C[S@@+]([O-])CCCCN=C=S` [SF, L-sulforaphane] were, in that order, “reduced apoptosis to a lesser extent than in Con”, “failed to decrease blood glucose levels”, “reversed the body weight loss during the initial phase of diabetes”, “restored to levels comparable to that of Con mice” and “restored the protein expression of MMP9 to levels comparable to the Con mice”.
